{
  "source": "patent US8734673B2",
  "about": "“Boron selective ionic liquids and polymeric ionic liquids, methods of making and methods of use thereof” (The University of Toledo, priority 2008, dated 2014)",
  "format_in_all_cases": "physicochemical",
  "key": {"[1]": {"experiment": "Thermal stability of thin film in fused silica capillary, flame ionization detection", "method": "Thermal stabilities were measured by immobilizing an approximate 0.15-0.20 microns film of the ionic liquid on the inner wall of a fused silica capillary. The capillary was then heated slowly in an oven and a very sensitive flame ionization detector (or mass spectrometer) used to detect any volatilization or decomposition of the ionic liquid. There are several advantages of using this set-up to measure the thermal stabilities of ionic liquids. The thermal stability is measured in the absence of oxygen by purging the capillary with a continuous flow of an inert gas such as helium, hydrogen, or nitrogen. […] Finally, this approach can use mass spectrometry detection to determine the likely volatilization/decomposition products."}, "[2]": {"experiment": "Solvation interaction parameters by inverse gas-liquid chromatography (Abraham model)", "method": "The preparation of the capillary columns for inverse gas-liquid chromatographic analysis was performed using a previously described procedure. All capillary columns had efficiencies between 2100 to 2500 plates/meter. Characterization of the capillary columns and probe molecule descriptions are listed in supplemental information. Multiple linear regression analysis (MLRA) and statistical calculations were performed using the program Analyse-it (Microsoft, USA).\nSolvation Characteristics. We have previously reported that the Abraham solvation model, a linear free energy approach that utilizes inverse gas-liquid chromatography to describe the solvation properties of a liquid, can be used to characterize room temperature ionic liquids. Described by equation 1, the model provides the so-called “interaction parameters” (r, s, a, b, l) by using multiple linear regression analysis to fit the retention factor (k, determined chromatographically) to the solute descriptors (R2, π2^Hα2H, β2^H, log L^16) for a wide variety of probe solute molecules. […]\nPreviously we characterized a large number of room temperature ionic liquids in terms of multiple solvation interactions using the solvation parameter model, shown in equation log k=c+rR2+sπ2^H+aα2^H+bβ2^H+l log L^16 [3] This approach utilizes inverse gas-liquid chromatography and allows the use of a large number of probe molecules to deconvolute solute retention in terms of the type and magnitude of individual solvation interactions. The solute descriptors (R2, π2^H, α2^H, .β2^H, log L^16) from Equation 3 are obtained from the literature for many probe molecules containing a variety of functional groups. The retention factor is determined chromatographically. The solute descriptors and retention factors are subjected to multiple linear regression analysis to obtain the interaction parameter coefficients (r, s, a, b, l), which ultimately characterize the stationary phase: r is the ability of the diionic liquid containing-stationary phase to interact with .π0 and n electrons of the solute, s is a measure of the dipolarity/polarizability of the diionic liquid containing-stationary phase, a defines the diionic liquid containing-stationary phase hydrogen bond basicity, b is a measure of the hydrogen bond acidity, and l refers to the ability of the diionic liquid containing-stationary phase to separate adjacent members of a homologous series.\nTest solutes used to determine interaction parameters and solvation thermodynamics were dissolved in dichloromethane. […] Split injection and flame ionization detection were utilized with injection and detection temperatures of 250° C. Helium was used as the carrier gas with a column inlet pressure of 3.1 psi and flow rate of 1.0 mL/min. Methane was used to determine the dead volume of the column. Multiple linear regression analysis and statistical calculations were performed using the program Analyze-it (Microsoft)."}, "[3]": {"experiment": "Refractive index, Abbe refractometer", "method": "(§1) The densities of the ionic liquids […] were determined at 23° C. by placing 2.0 mL of the ionic liquid in a 2.0 mL volumetric tube and weighing by difference. The melting points of the ionic liquids were determined using a Perkin Elmer Pyris 1 Differential Scanning Calorimeter (Boston, Mass.). Typical methods involved using a 10° C./min temperature ramp to determine and identify the first and second order thermal transitions. […] For solid compounds, the melting points were verified using a capillary melting point apparatus. Refractive index measurements were conducted at 23° C. using a Bausch & Lomb Abbe-3L refractometer."}, "[4]": {"experiment": "Surface tension, DuNuoy tensiometer", "settings": "room temperature (23° C.)", "procedure": "Surface tension values were measured at room temperature (23° C.) using a Model 20 DuNuoy Tensiometer (Fisher Scientific, Fair Lawn, N.J.) equipped with a platinum-iridium ring with a mean circumference of 5.940 cm and a ring/wire radius of 53.21."}, "[5]": {"experiment": "Density by weighing 2.0 mL of ionic liquid", "method": "as §1"}},
  "data": [
    {"molecule": "C[N+]1(CCCCCCCCC[N+]2(C)CCCC2)CCCC1.O=S(=O)([N-]S(=O)(=O)C(F)(F)F)C(F)(F)F.O=S(=O)([N-]S(=O)(=O)C(F)(F)F)C(F)(F)F", "note": "[C9(mpy)2-NTf2, 1,9-di(methylpyrrolidinium)nonane di-bis[(trifluoromethyl)sulfonyl]imidate]", "values": [
      {"measurement": "stable liquid range", "setting": "[1]", "value": "about −4 °C to >400 °C"},
      {"measurement": "Interaction parameter a (hydrogen bond basicity)", "setting": "[2]; 40° C.", "value": 1.98},
      {"measurement": "Interaction parameter b (hydrogen bond acidity)", "setting": "[2]; 40° C.", "value": 0.32},
      {"measurement": "Interaction parameter c", "setting": "[2]; 40° C.", "value": "−2.83"},
      {"measurement": "Interaction parameter l (dispersion forces)", "setting": "[2]; 40° C.", "value": 0.62},
      {"measurement": "Interaction parameter r (interaction via nonbonding and π-electrons)", "setting": "[2]; 40° C.", "value": 0.27},
      {"measurement": "Interaction parameter s (dipolarity/polarizability)", "setting": "[2]; 40° C.", "value": 1.71},
      {"measurement": "Interaction parameter a (hydrogen bond basicity)", "setting": "[2]; 70° C.", "value": 1.65},
      {"measurement": "Interaction parameter b (hydrogen bond acidity)", "setting": "[2]; 70° C.", "value": 0.35},
      {"measurement": "Interaction parameter c", "setting": "[2]; 70° C.", "value": "−2.85"},
      {"measurement": "Interaction parameter l (dispersion forces)", "setting": "[2]; 70° C.", "value": 0.48},
      {"measurement": "Interaction parameter r (interaction via nonbonding and π-electrons)", "setting": "[2]; 70° C.", "value": 0.34},
      {"measurement": "Interaction parameter s (dipolarity/polarizability)", "setting": "[2]; 70° C.", "value": 1.52},
      {"measurement": "Interaction parameter a (hydrogen bond basicity)", "setting": "[2]; 100° C.", "value": 1.48},
      {"measurement": "Interaction parameter b (hydrogen bond acidity)", "setting": "[2]; 100° C.", "value": 0.15},
      {"measurement": "Interaction parameter c", "setting": "[2]; 100° C.", "value": "−2.99"},
      {"measurement": "Interaction parameter l (dispersion forces)", "setting": "[2]; 100° C.", "value": 0.42},
      {"measurement": "Interaction parameter r (interaction via nonbonding and π-electrons)", "setting": "[2]; 100° C.", "value": 0.23},
      {"measurement": "Interaction parameter s (dipolarity/polarizability)", "setting": "[2]; 100° C.", "value": 1.49}
    ]},
    {"molecule": "1,9-di(2,3-dimethylimidazolium)nonane di-tetrafluoroborate [C9(m2im)2-BF4]", "values": [
      {"measurement": "Refractive Index", "setting": "[3]; 23° C., Tables 1 and 2", "value": 1.456},
      {"measurement": "Surface Tension", "setting": "[4]", "value": 58.1, "unit": "dynes/cm"},
      {"measurement": "Density", "setting": "[5]; 23° C., Tables 1 and 2", "value": 1.31, "unit": "g/mL"}
    ]},
    {"molecule": "C=Cn1cc[n+](CCCCCCCCCCCC)c1.O=S(=O)([N-]S(=O)(=O)C(F)(F)F)C(F)(F)F", "note": "[Monomer 3, 1-vinyl-3-dodecylimidazolium bis[(trifluoromethane)sulfonyl]imidate]", "values": [
      {"measurement": "Refractive Index", "setting": "[3]; monomers/crosslinkers, Table A", "value": 1.448},
      {"measurement": "Density", "setting": "[5]; monomers/crosslinkers, Table A", "value": 1.23, "unit": "g/mL"}
    ]}
  ]
}
